Measurements published in ChEMBL document CHEMBL1132396, “Potent, orally bioavailable somatostatin agonists: good absorption achieved by urea backbone cyclization” (Bioorg Med Chem Lett, 1999).
Values joined by “and” are separate entries in the source; they are usually repeats but may differ in a detail not shown here. Equal values may be shown once.

Legend:
[1] = biological target: T1, Somatostatin receptor type 2 (Homo sapiens, UniProt P30874); assay: In vitro binding affinity was evaluated against human Somatostatin receptor type 2 (hSSTR-2)
T1 sequence (P30874 whole entry): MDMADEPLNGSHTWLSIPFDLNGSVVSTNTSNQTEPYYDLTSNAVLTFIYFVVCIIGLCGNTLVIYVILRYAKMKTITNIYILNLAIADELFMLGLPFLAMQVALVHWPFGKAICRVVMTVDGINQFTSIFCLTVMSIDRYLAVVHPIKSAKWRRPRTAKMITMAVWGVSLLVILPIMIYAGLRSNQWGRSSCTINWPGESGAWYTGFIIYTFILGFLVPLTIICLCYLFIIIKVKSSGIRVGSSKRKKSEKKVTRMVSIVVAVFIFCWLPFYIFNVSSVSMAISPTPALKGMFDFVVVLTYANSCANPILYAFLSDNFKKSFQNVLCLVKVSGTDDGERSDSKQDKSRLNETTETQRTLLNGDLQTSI

[2] = Bioavailability; assay type: ADME, organism-based, Canis lupus familiaris; conditions: beagle, dog, in vivo
[3] = biological target: Somatostatin receptor type 2 (Mus musculus, UniProt P30875); assay: In vitro binding affinity was evaluated against mouse Somatostatin receptor type 2 (mSSTR-2)
Somatostatin receptor type 2 (Mus musculus, UniProt P30875), sequence (P30875 whole entry): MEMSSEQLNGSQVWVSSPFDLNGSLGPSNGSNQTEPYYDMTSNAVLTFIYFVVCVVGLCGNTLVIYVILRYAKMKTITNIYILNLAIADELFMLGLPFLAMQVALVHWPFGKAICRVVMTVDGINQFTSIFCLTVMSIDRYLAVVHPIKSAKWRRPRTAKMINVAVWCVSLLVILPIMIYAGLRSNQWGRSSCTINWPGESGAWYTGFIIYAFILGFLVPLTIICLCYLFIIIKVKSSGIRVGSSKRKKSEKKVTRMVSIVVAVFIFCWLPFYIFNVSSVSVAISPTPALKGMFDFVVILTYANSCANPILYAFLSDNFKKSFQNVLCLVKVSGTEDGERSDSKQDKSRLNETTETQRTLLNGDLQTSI

[4] = biological target: T1, Somatostatin receptor type 2; assay: In vitro binding affinity was evaluated against human Somatostatin receptor type 2 in experiment 1
[5] = biological target: T1, Somatostatin receptor type 2; assay: In vitro binding affinity was evaluated against human Somatostatin receptor type 2 in experiment 2
Rattus norvegicus = organism: Rattus norvegicus; assay: Compound tested for the inhibition of growth hormone release was determined using primary cultures of rat anterior pituitary cells; assay type: functional, cell-based; conditions: Pituitary gland cell
[6] = biological target: Somatostatin receptor type 3 (Homo sapiens, UniProt P32745); assay: In vitro binding affinity was evaluated against human Somatostatin receptor type 3 (hSSTR-3)
Somatostatin receptor type 3, sequence (P32745 whole entry): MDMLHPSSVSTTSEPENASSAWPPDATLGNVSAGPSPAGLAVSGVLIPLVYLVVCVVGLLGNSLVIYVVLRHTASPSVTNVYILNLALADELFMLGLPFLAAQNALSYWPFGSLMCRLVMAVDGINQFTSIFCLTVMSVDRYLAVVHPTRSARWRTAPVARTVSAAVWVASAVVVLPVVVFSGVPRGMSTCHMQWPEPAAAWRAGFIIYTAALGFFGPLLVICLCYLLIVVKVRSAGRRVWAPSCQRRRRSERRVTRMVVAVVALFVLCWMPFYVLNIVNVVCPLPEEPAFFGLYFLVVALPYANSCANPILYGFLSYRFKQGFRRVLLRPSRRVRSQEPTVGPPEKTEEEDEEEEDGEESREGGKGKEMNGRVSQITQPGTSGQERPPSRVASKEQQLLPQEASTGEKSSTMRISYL

[7] = biological target: Somatostatin receptor type 5 (Homo sapiens, UniProt P35346); assay: In vitro binding affinity was evaluated against human Somatostatin receptor type 5 (hSSTR-5)
[8] = Area under curve after 1 mpk peroral administration to beagles; assay type: ADME, Canis lupus familiaris; conditions: Beagle, dog, in vivo, po, 1 mg/kg
[9] = Bioavailability after 1 mpk peroral administration to beagles; assay type: ADME, organism-based, Canis lupus familiaris; conditions: Beagle, dog, in vivo, po, 1 mg/kg
[10] = Cmax value after 1 mpk peroral administration to beagles; assay type: ADME, organism-based, Canis lupus familiaris; design: dose 1 mpk, route oral; conditions: Beagle, dog, in vivo, po, 1 mg/kg
[11] = biological target: Somatostatin receptor type 4 (Homo sapiens, UniProt P31391); assay: In vitro binding affinity was evaluated against human Somatostatin receptor type 4 (hSSTR-4)
Somatostatin receptor type 4, sequence (P31391 whole entry): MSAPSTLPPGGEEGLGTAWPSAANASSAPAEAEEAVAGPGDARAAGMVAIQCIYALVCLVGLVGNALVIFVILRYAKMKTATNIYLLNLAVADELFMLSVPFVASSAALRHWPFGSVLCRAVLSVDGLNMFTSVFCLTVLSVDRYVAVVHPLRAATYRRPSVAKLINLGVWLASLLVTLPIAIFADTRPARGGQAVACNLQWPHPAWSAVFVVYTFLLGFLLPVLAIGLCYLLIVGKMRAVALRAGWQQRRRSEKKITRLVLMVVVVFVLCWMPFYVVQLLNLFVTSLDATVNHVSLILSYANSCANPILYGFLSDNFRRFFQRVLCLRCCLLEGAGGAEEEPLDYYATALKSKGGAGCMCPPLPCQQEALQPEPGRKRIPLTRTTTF

[12] = Bioavailability after 2 mpk peroral administration to beagles; assay type: ADME, organism-based, Canis lupus familiaris; conditions: Beagle, dog, in vivo, po, 2 mg/kg
[13] = Cmax value after 2 mpk peroral administration to beagles; assay type: ADME, organism-based, Canis lupus familiaris; design: dose 2 mpk, route oral; conditions: Beagle, dog, in vivo, po, 2 mg/kg
[14] = biological target: Somatostatin receptor type 1 (Homo sapiens, UniProt P30872); assay: In vitro binding affinity was evaluated against human Somatostatin receptor type 1 (hSSTR-1)
Somatostatin receptor type 1, sequence (P30872 whole entry): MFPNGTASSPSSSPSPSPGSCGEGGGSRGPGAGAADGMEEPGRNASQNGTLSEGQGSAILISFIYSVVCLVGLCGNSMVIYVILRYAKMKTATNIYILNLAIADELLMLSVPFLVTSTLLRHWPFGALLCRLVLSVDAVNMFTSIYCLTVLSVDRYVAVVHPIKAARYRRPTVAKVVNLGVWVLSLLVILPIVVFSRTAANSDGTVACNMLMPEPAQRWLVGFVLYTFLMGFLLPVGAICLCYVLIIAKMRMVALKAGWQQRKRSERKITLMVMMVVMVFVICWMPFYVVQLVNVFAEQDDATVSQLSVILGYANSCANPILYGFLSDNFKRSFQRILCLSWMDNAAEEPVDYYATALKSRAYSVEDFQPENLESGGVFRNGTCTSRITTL

[15] = Area under curve after 2 mpk peroral administration to beagles; assay type: ADME, Canis lupus familiaris; conditions: Beagle, dog, in vivo, po, 2 mg/kg

## C[C@@H](c1c[nH]c2ccccc12)[C@H](C(=O)NC[C@H]1OC[C@H](N)CO1)N1CCN(CCc2cccc3ccccc23)C1=O
[1]
  Ki: 122 nM

## C[C@@H](c1c[nH]c2ccccc12)[C@H](C(=O)N[C@H](CCCCN)C(=O)OC(C)(C)C)N1CCN(Cc2ccc(C(F)(F)F)cc2)C1=O
[1]
  Ki: 1.3 nM
[2]
  bioavailability: 3%

## C[C@@H](c1c[nH]c2ccccc12)[C@H](C(=O)N[C@H](CCCCN)C(=O)OC(C)(C)C)N1CCN(CCc2ccccc2)C1=O
[1]
  Ki: 47 nM

## NCCCCCNC(=O)[C@@H](Cc1c[nH]c2ccccc12)NC(=O)N1CCC2(CCc3ccccc32)CC1
[3]
  Ki: 10 nM

## CC(CCN1CCN([C@@H](C(=O)N[C@H](CCCCN)C(=O)OC(C)(C)C)[C@@H](C)c2c[nH]c3ccccc23)C1=O)c1ccccc1 (stereo partly drawn)
[1]
  Ki: 5.9 nM

## C[C@@H](c1c[nH]c2ccccc12)[C@H](C(=O)NC[C@H]1OC[C@H](N)CO1)N1CCN(CCCc2ccccc2)C1=O
[1]
  Ki: 18 nM

## COC(=O)[C@@H](CCCCN)NC(=O)[C@@H](Cc1c[nH]c2ccccc12)NC(=O)N1CCC2(CCc3ccccc32)CC1
[3]
  Ki: 2 nM

## CN(C(=O)N1CCC2(CCc3ccccc32)CC1)[C@H](Cc1c[nH]c2ccccc12)C(=O)NCCCCCN
[3]
  Ki: > 10 nM

## CC(CCc1ccccc1)N1CCN([C@@H](C(=O)N[C@H](CCCCN)C(=O)OC(C)(C)C)[C@@H](C)c2c[nH]c3ccccc23)C1=O (stereo partly drawn)
[1]
  Ki: 12 nM

## C[C@@H](c1c[nH]c2ccccc12)[C@H](C(=O)N(C)C[C@H]1OC[C@H](N)CO1)N1CCN(C2CCCN(c3ccccc3)C2)C1=O (stereo partly drawn)
[2]
  bioavailability: 15%
[4]
  Ki: 2.1 nM
[5]
  Ki: 14 nM
Rattus norvegicus
  IC50: 70 nM
[6]
  Ki: > 10000 nM
[7]
  Ki: 1400 nM

## C[C@@H](c1c[nH]c2ccccc12)[C@H](C(=O)NC[C@H]1OC[C@H](N)CO1)N1CCN(Cc2ccc(Cl)c(Cl)c2)C1=O
[1]
  Ki: 7.3 nM
[2]
  bioavailability: 21%

## C[C@@H](c1c[nH]c2ccccc12)[C@H](C(=O)N(C)C[C@H]1OC[C@H](N)CO1)N1CCN(CCCc2ccccc2)C1=O
[1]
  Ki: 11 nM

## C[C@@H](c1c[nH]c2ccccc12)[C@H](C(=O)NC[C@H]1OC[C@H](N)CO1)N1CCN(CCC(c2ccccc2)c2ccccc2)C1=O
[1]
  Ki: 8.5 nM and 1.1 nM

## C[C@@H](c1c[nH]c2ccccc12)[C@@H](NC(=O)NCCCc1ccccc1)C(=O)N[C@H](CCCCN)C(=O)OC(C)(C)C
[1]
  Ki: 1 nM
[8]
  AUC: 314 ng·h/mL
[9]
  bioavailability: 1%
[10]
  Cmax: 86 ng/mL

## C[C@@H](c1c[nH]c2ccccc12)[C@H](C(=O)N[C@H](CCCCN)C(=O)OC(C)(C)C)N1CCN(c2cccc(-c3ccccc3)c2)C1=O
[1]
  Ki: 80 nM

## C[C@@H](c1c[nH]c2ccccc12)[C@H](C(=O)N(C)C[C@H]1OC[C@H](N)CO1)N1CCN(CCC(c2ccccc2)c2ccccc2)C1=O
[1]
  Ki: 4.6 nM

## C[C@@H](c1c[nH]c2ccccc12)[C@H](C(=O)N[C@H](CCCCN)C(=O)OC(C)(C)C)N1CCN(C2CCC(c3ccccc3)CC2)C1=O (stereo partly drawn)
[4]
  Ki: 40 nM
[5]
  Ki: 6.3 nM

## C[C@@H](c1c[nH]c2ccccc12)[C@@H](NC(=O)N(C)CCCc1ccccc1)C(=O)N[C@H](CCCCN)C(=O)OC(C)(C)C
[1]
  Ki: 2.2 nM
[8]
  AUC: 333 ng·h/mL
[10]
  Cmax: 103 ng/mL

## COC(=O)[C@@H](CCCCN)NC(=O)[C@@H](Cc1c[nH]c2ccccc12)OC(=O)N1CCC2(CCc3ccccc32)CC1
[3]
  Ki: 10 nM

## C[C@@H](c1c[nH]c2ccccc12)[C@H](C(=O)N[C@H](CCCCN)C(=O)OC(C)(C)C)N1CCN(CCCc2ccccc2)C1=O
[1]
  Ki: 3.6 nM
[11]
  Ki: 83 nM
[12]
  bioavailability: 5%
[13]
  Cmax: 350 ng/mL
[14]
  Ki: 712 nM
[15]
  AUC: 837 ng·h/mL
[6]
  Ki: 1290 nM
[7]
  Ki: 284 nM

## C[C@@H](c1c[nH]c2ccccc12)[C@H](C(=O)N[C@H](CCCCN)C(=O)OC(C)(C)C)N1CCN(Cc2ccccc2)C1=O
[1]
  Ki: 14 nM

## C[C@@H](c1c[nH]c2ccccc12)[C@H](C(=O)NC[C@H]1OC[C@H](N)CO1)N1CCN(CCCn2c(O)nc3ccccc32)C1=O
[1]
  Ki: 40 nM

## C[C@@H](c1c[nH]c2ccccc12)[C@H](C(=O)N[C@H](CCCCN)C(=O)OC(C)(C)C)N1CCN(C2CCCN(c3ccccc3)C2)C1=O (stereo partly drawn)
[1]
  Ki: 1.4 nM
